# According to patent US20250375435A1, “COMPOUNDS FOR TREATING INFECTIONS” (Ohio State Innovation Foundation, priority 2022, published 2025):
# System: Salmonella
# Test: Single-infection mouse model with probiotic strain added 1:1 to wild-type or fraB mutant Salmonella
# Format: in vivo, streptomycin-treated Swiss Webster mice
# Conditions: presence or absence of probiotic or exogenous F-Asn, day 4 post-infection
# Method: A quadruple mutant designated ASD203 (ASPII ASPI2 AfraRBDAE4 AasnB80:kan) was evaluated for use as a probiotic in combination with FraB inhibitors. This is a strain of Salmonella lacking SPI1 and SPI2 so that it cannot induce inflammation. Additionally, this strain cannot consume F-Asn due to a deletion of the entire fra island (fraR-fraBDAE). The ansB gene was also deleted as this asparaginase is capable of converting F-Asn to F-Asp. The addition of this probiotic should provide an inflammation resistant competitor to Salmonella for all nutrients except F-Asn, effectively forcing the use of F-Asn as a nutrient. […]
# Mouse modeling experiments—For competition experiments, a 1:1 mixture of two different bacterial strains were inoculated intragastrically (i.g.) and then recovered from ceca to determine the competitive index (CI) of the two strains. […] CI was determined by plating on media selective for WT (LB cam) and mutant (LB kan). For the competitions with the fraB F214A mutant which is not marked, CI was determined by screening 52 individual colonies recovered from XLD plates for antibiotic resistance by patching on LB plates containing the appropriate antibiotic, thus the limit of detection on these experiments is less than two logs. […] CFU enumeration was determined by plating on media selective for WT (LB cam) and the mutant (LB kan). […]
substance,measurement,value
fructose-asparagine [F-Asn],numbers of fraB mutant bacteria recovered,not significantly different
